Reference: patent US8658698B2, “Insecticidal compounds” (Syngenta Crop Protection, LLC, priority 2008, dated 2014)

What was measured:
Assay type in all cases: in vivo
[1] = test system: Spodoptera littoralis (Egyptian Cotton Leafworm); assay: Spodoptera littoralis cotton leaf disc spray test; conditions: same protocol, 200 ppm, 3 DAT
Procedure: (§1) This Example illustrates the pesticidal/insecticidal properties of compounds of formula (I). The tests were performed as follows:
Spodoptera littoralis (Egyptian Cotton Leafworm)
(§2) Cotton leaf discs were placed on agar in a 24-well microtiter plate and sprayed with test solutions at an application rate of 200 ppm. After drying, the leaf discs were infested with 5 L1 larvae. The samples were checked for mortality, feeding behavior, and growth regulation 3 days after treatment (DAT). The following compounds gave at least 80% control of Spodoptera littoralis: A2, A6, A8, A9, A10, A11, A13, A15, A19, A20, A22, A25, A27, A29, A31, A33, A35, A41, A50, A55, A60, A65, A73, A88, A92, and A94. Heliothis virescens (Tobacco Budworm): Eggs (0-24 h old) were placed in 24-well microtiter plate on artificial diet and treated with test solutions at an application rate of 200 ppm (concentration in well 18 ppm) by pipetting. After an incubation period of 4 days, samples were checked for egg mortality, larval mortality and growth regulation. The following compounds gave at least 80% control of Heliothis virescens: A2, A3, A4, A5, A6, A7, A9, A10, A11, A13, A15, A19, A20, A22, A25, A26, A27, A28, A29, A31, A32, A33, A35, A38, A40, A41, A43, A46, A55, A59, A60, A65, A69, A70, A71, A73, A74, A75, A77, A79, A80, A82, A86, A88, A89, A90, A92, A94, A96, A98, and A100. Plutella xylostella (Diamond Back Moth): A 24-well microtiter plate (MTP) with artificial diet was treated with test solutions at an application rate of 200 ppm (concentration in well 18 ppm) by pipetting. After drying, the MTP's were infested with L2 larvae (7-12 per well). After an incubation period of 6 days, samples were checked for larval mortality and growth regulation. The following compounds gave at least 80% control of Plutella xylostella: A3, A4, A5, A6, A7, A8, A10, A15, A16, A18, A19, A20, A22, A25, A26, A27, A28, A29, A31, A32, A33, A35, A38, A40, A55, A69, A71, A73, A74, A75, A76, A77, A78, A80, A82, A86, A87, A88, A89, A92, A94, A96, A97, A98, and A99. Diabrotica balteata (Corn Root Worm): A 24-well microtiter plate (MTP) with artificial diet was treated with test solutions at an application rate of 200 ppm (concentration in well 18 ppm) by pipetting. After drying, the MTP's were infested with larvae (L2) (6-10 per well). After an incubation period of 5 days, samples were checked for larval mortality, and growth regulation. The following compounds gave at least 80% control of Diabrotica balteata: A5, A6, A7, A14, A15, A18, A24, A35, A53, A55, A70, A71, A75, A79, A84, A85, A88, A92, A93, A95, A96, A97, A98, A99, A100, A101, A102, A103, and A104. Myzus persicae (Green Peach Aphid): Each well of a 24-well microtiter plate is filled with 0.6 ml 30% sucrose solution, containing 12.5 ppm of the test compounds. The wells are covered with streched parafilm and infested with a mixed population of Myzus persicae. After an incubation period of 6 days, samples are checked for mortality (feeding activity). The following compounds gave at least 80% control of Myzus persicae: A4, A6, A10, A11, A15, A19, A20, A24, A27, A29, A33, A34, A36, A37, A39, A40, A41, A42, A43, A44, A45, A46, A47, A48, A49, A55, A60, and A82. Tetranychus urticae (Two-Spotted Spider Mite): Bean leaf discs on agar in 24-well microtiter plates were sprayed with test solutions at an application rate of 200 ppm. After drying, the leaf discs are infested with mite populations of mixed ages. 8 days later, discs are checked for egg mortality, larval mortality, and adult mortality. The following compounds gave at least 80% control of Tetranychus urticae: A6, A11, A15, A19, A20, A22, A26, A35, A58, and A64.

[2] = test system: Heliothis virescens (Tobacco Budworm); assay: Heliothis virescens egg test on artificial diet; conditions: same protocol, 200 ppm (18 ppm in well), 4 days
Procedure: as §1, §2

[3] = test system: Plutella xylostella (Diamond Back Moth); assay: Plutella xylostella larvae test on artificial diet; conditions: same protocol, 200 ppm (18 ppm in well), 6 days
Procedure: as §1, §2

[4] = test system: Diabrotica balteata (Corn Root Worm); assay: Diabrotica balteata larvae test on artificial diet; conditions: same protocol, 200 ppm (18 ppm in well), 5 days
Procedure: as §1, §2

[5] = test system: Myzus persicae (Green Peach Aphid); assay: Myzus persicae sucrose solution feeding test; conditions: same protocol, 12.5 ppm, 6 days
Procedure: as §1, §2

[6] = test system: Tetranychus urticae (Two-Spotted Spider Mite); assay: Tetranychus urticae bean leaf disc spray test; conditions: same protocol, 200 ppm, 8 days
Procedure: as §1, §2

Measured: effect on mortality, feeding behavior, or growth regulation

CCc1cc(C(F)(C(F)(F)F)C(F)(F)C(F)(F)F)cc(C)c1NC(=O)c1ccc(C(=O)Nc2nc(-c3ccc(C)cc3)cs2)c(C)c1 (stereo not drawn) [A66]
no or little effect: all assays above

CCc1cc(C(F)(C(F)(F)F)C(F)(F)C(F)(F)F)cc(C)c1NC(=O)c1ccc(C(=O)NC(C)COC)c(C)c1 (stereo not drawn) [A17]
no or little effect: all assays above

CCc1cc(C(F)(C(F)(F)F)C(F)(F)C(F)(F)F)cc(C)c1NC(=O)c1ccc(C(=O)NCc2cc(-c3ccc(Cl)cc3)no2)c(C)c1 (stereo not drawn) [A68]
no or little effect: all assays above

CCOC(=O)C1CC=CCC1NC(=O)c1ccc(C(=O)Nc2c(C)cc(C(F)(C(F)(F)F)C(F)(F)C(F)(F)F)cc2CC)cc1C (stereo not drawn) [A12]
no or little effect: all assays above

CCc1cc(C(F)(C(F)(F)F)C(F)(F)C(F)(F)F)cc(C)c1NC(=O)c1ccc(C(=O)Nc2n[nH]c(SC)n2)c(C)c1 (stereo not drawn) [A56]
no or little effect: all assays above

CCCCNC(=O)c1ccc(C(=O)Nc2c(C)cc(C(F)(C(F)(F)F)C(F)(F)F)cc2C)cc1C [A1, N-1-butyl-N-4-[2,6-dimethyl-4-(1,2,2,2-tetrafluoro-1-trifluoro-methyl-ethyl)-phenyl]-2-methyl-terephthalamide]
no or little effect: all assays above

CCc1cc(C(F)(C(F)(F)F)C(F)(F)C(F)(F)F)cc(C)c1NC(=O)c1ccc(C(=O)NCCCN2CCCC2)c(C)c1 (stereo not drawn) [A23]
no or little effect: all assays above

CCc1cc(C(F)(C(F)(F)F)C(F)(F)C(F)(F)F)cc(C)c1NC(=O)c1ccc(C(=O)Nc2nnc(C)s2)c(C)c1 (stereo not drawn) [A63]
no or little effect: all assays above

CCc1cc(C(F)(C(F)(F)F)C(F)(F)C(F)(F)F)cc(C)c1NC(=O)c1ccc(C(=O)Nc2nc3c(C)cccc3s2)c(C)c1 (stereo not drawn) [A62]
no or little effect: all assays above

CCc1cc(C(F)(C(F)(F)F)C(F)(F)C(F)(F)F)cc(C)c1NC(=O)c1ccc(C(=O)NCc2ccc(Br)cc2F)c(C)c1 (stereo not drawn) [A83]
no or little effect: all assays above
